Common to all, as to experiment: NCI anticancer screen, dose series, 48 h
The subject of experiment [1] is ACHN.
Experiment [2] relates to BT-549.
Experiment [3] concerns CAKI-1.
In experiment [4] the test system is COLO 205.
Experiment [5] concerns DU-145.
Experiment [6] concerns HL-60.
The test system of experiment [7] is HOP-92.
Experiment [8] relates to Hs-578T.
Experiment [9] relates to KM12.
The test system of experiment [10] is M14.
The subject of experiment [11] is MCF7.
In experiment [12] the test system is SF-268.
The test system of experiment [13] is SF-539.
The subject of experiment [14] is SK-MEL-5.
Experiment [15] has as its system SK-OV-3.
Experiment [16] relates to U-251.
Experiment [17] deals with K562.
Experiment [18] deals with PC-3.
Experiment [19] relates to SK-MEL-2.

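The compound was tested at five concentrations on cells cultured in 96-well plates, with a 48-hour exposure period. At the GI50, growth is halved.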 Calls of active or inactive are those of the source. Cut-off read from the data, not from the text of the source: active = GI50 up to about 1.1 µM and inactive = higher.

Turning to `C/C(=N\Nc1ccc([N+](=O)[O-])cc1[N+](=O)[O-])c1sc(-n2nc(-c3ccccc3)cc2-c2ccccc2)nc1C`, the GI50 is 16.6 µM (inactive) in [1]; 36.9 µM (inactive) in [2]; 20 µM (inactive) in [3]; 24.8 µM (inactive) in [4]; 35.5 µM (inactive) in experiment [5]; 12.6 µM (inactive) in experiment [6]. Also, the GI50 in experiment [7] is 23.9 µM (inactive); in experiment [8], 78.9 µM (inactive); in experiment [9], 11.3 µM (inactive); in experiment [10] it was 56.4 µM (inactive); in [11], 46.5 µM (inactive); in experiment [12], 44.2 µM (inactive). The GI50 is 46.8 µM (inactive) in [13], 34.4 µM (inactive) in experiment [14], 24.5 µM (inactive) in [15] and 42.7 µM (inactive) in experiment [16].
For `CC(=O)Nc1ccccc1C=C1c2ccccc2-c2ccccc21`, the GI50 was 42.7 µM (inactive) in experiment [1]; 24.8 µM (inactive) in experiment [2]; 63 µM (inactive) in experiment [3]; 78.2 µM (inactive) in experiment [4]; 33.2 µM (inactive) in experiment [5]; > 100 µM (inactive) in experiment [6]. Besides, the GI50 in experiment [8] is > 100 µM (inactive); in [17], 51.9 µM (inactive); in [9] it was > 100 µM (inactive); in experiment [10] it was 36.7 µM (inactive); in experiment [11], 20.9 µM (inactive); in [18], 41.8 µM (inactive). Moreover, the GI50 is > 100 µM (inactive) in experiment [12]; 13.2 µM (inactive) in experiment [13]; 34 µM (inactive) in experiment [19]; 57.3 µM (inactive) in experiment [14]; 23.2 µM (inactive) in experiment [16].
Take `COc1cc2c(cc1OCCCOc1cc3c(cc1OC)C(=O)N1CCC[C@H]1C(=O)N3)N=C[C@@H]1CCCN1C2=O`: the GI50 in experiment [1] was 17.1 µM (inactive); in [2], 10.3 µM (inactive); in [3], 29.9 µM (inactive); in experiment [4], 3.61 µM (inactive); in experiment [5], 36.7 µM (inactive); in experiment [6], 8.34 µM (inactive). Also, the GI50 in experiment [8] was 29 µM (inactive); in experiment [17] it was 3.77 µM (inactive); in experiment [9], 16.4 µM (inactive); in [10] it was 20.3 µM (inactive); in [11], 4.52 µM (inactive); in [18] it was 13.6 µM (inactive). Further, the GI50 in experiment [12] was 4.82 µM (inactive); in experiment [19], 12.6 µM (inactive); in [14], 12.5 µM (inactive); in experiment [16], 4.65 µM (inactive).
For the compound `O=C1NC(=S)N/C1=C\c1ccc(Sc2ccccc2C(=O)O)s1`, the GI50 was > 100 µM (inactive) in experiment [1]; > 100 µM (inactive) in experiment [2]; 70.3 µM (inactive) in [3]; > 100 µM (inactive) in experiment [4]; > 100 µM (inactive) in experiment [5]; 44.8 µM (inactive) in [6]. Moreover, the GI50 is > 100 µM (inactive) in experiment [8]; 93.5 µM (inactive) in experiment [17]; > 100 µM (inactive) in experiment [9]; > 100 µM (inactive) in experiment [11]; > 100 µM (inactive) in [18]; > 100 µM (inactive) in experiment [12]. In addition, the GI50 in experiment [19], in [14] and in experiment [16] was > 100 µM (inactive) in each case.
In the case of `c1ccc(-c2cc(-c3ccncc3)cc(-c3ccncc3)n2)cc1`, the GI50 in experiment [1], in experiment [2], in experiment [3], in experiment [4], in experiment [5] and in [6] was > 100 µM (inactive) throughout. In addition, the GI50 in experiment [8] is 38.5 µM (inactive); in experiment [17], > 100 µM (inactive); in experiment [9], > 100 µM (inactive); in experiment [10] it was > 100 µM (inactive); in experiment [11] it was 0.618 µM (active); in experiment [18], > 100 µM (inactive). Besides, the GI50 is 45.6 µM (inactive) in experiment [12]; > 100 µM (inactive) in experiment [19]; > 100 µM (inactive) in experiment [14]; 80.7 µM (inactive) in [15]; 51.3 µM (inactive) in experiment [16].
On to `COc1cc(C2S/C(=C/c3ccccc3)C(=O)N2c2cc(Cl)ccc2Cl)cc(OC)c1OC` (stereo not given), for which the GI50 is 35.8 µM (inactive) in experiment [1]; 39.5 µM (inactive) in experiment [2]; 39.2 µM (inactive) in experiment [3]; 55.3 µM (inactive) in experiment [4]; 35 µM (inactive) in experiment [5]; 31 µM (inactive) in [6]. The GI50 in experiment [7] was 51.2 µM (inactive); in [17], 47 µM (inactive); in experiment [9] it was 19 µM (inactive); in experiment [10], 19.6 µM (inactive); in [11] it was 27 µM (inactive); in experiment [18], 31.6 µM (inactive). Besides, the GI50 is 21.6 µM (inactive) in [12]; 17.9 µM (inactive) in [13]; 38.8 µM (inactive) in experiment [19]; 35.8 µM (inactive) in [14]; > 100 µM (inactive) in [15]; 35.7 µM (inactive) in experiment [16].
As for `O=C(NCCN1CCOCC1)c1ccc(I)cc1`, the GI50 in experiment [1], in [2], in experiment [3], in experiment [6], in experiment [8] and in experiment [17] was > 100 µM (inactive) in each case. Besides, the GI50 in experiment [10], in [11], in [18], in experiment [12], in experiment [13] and in experiment [14] was > 100 µM (inactive) each time. Besides, the GI50 in [15] and in experiment [16] was > 100 µM (inactive) each time.
Take `O=C(c1cccc2cc(O)ccc12)c1cn(CCN2CCOCC2)c2ccccc12`: the GI50 is 33.7 µM (inactive) in experiment [1]; 23.4 µM (inactive) in experiment [2]; 39.4 µM (inactive) in experiment [3]; 45.7 µM (inactive) in experiment [4]; 30.1 µM (inactive) in experiment [5]; 28.2 µM (inactive) in experiment [6]. Also, the GI50 is 31.4 µM (inactive) in [7]; 60.1 µM (inactive) in [17]; 20 µM (inactive) in experiment [10]; 25.5 µM (inactive) in experiment [11]; 12 µM (inactive) in experiment [18]; 24 µM (inactive) in [12]. In addition, the values for the GI50 in experiment [13], in [19] and in [14] were > 100 µM (inactive), 11 µM (inactive) and 40 µM (inactive), respectively.
For `N#Cc1ccc2[nH]c3c(c2c1)CC(=O)Nc1ccccc1-3` [PAULLONE 2], the GI50 in [1], in experiment [2], in experiment [3], in experiment [4], in [6] and in experiment [7] was > 100 µM (inactive) in each case. Also, the GI50 in experiment [8], in experiment [17], in experiment [10], in experiment [11], in [18] and in experiment [12] was > 100 µM (inactive) each time. The GI50 in [13], in experiment [19], in experiment [14] and in [16] was > 100 µM (inactive) each time.
Consider `Cc1c(CN)c(C)c(CN)c(C)c1CN`, for which the GI50 in experiment [1], in [2], in experiment [3], in experiment [4], in experiment [5] and in [6] was > 100 µM (inactive) in each case. In addition, the GI50 in [7], in experiment [17], in experiment [9], in experiment [10], in experiment [11] and in experiment [18] was > 100 µM (inactive) throughout. The GI50 in experiment [12], in experiment [13], in experiment [19], in experiment [14] and in experiment [16] was > 100 µM (inactive) each time.
For `COC(=O)C1=C(C)NC(C)=C(C(=O)OC)C1c1cccc(N=O)c1`, the GI50 is 14.5 µM (inactive) in experiment [1]; 17 µM (inactive) in [2]; 10.6 µM (inactive) in experiment [3]; 18.5 µM (inactive) in experiment [4]; 15.8 µM (inactive) in experiment [5]; 3.85 µM (inactive) in experiment [6]. The GI50 in [7] was 7.69 µM (inactive); in experiment [17] it was 4.69 µM (inactive); in [9], 16.6 µM (inactive); in experiment [10] it was 13.9 µM (inactive); in experiment [11], 18.4 µM (inactive); in [18], 17.8 µM (inactive). For the same compound, the GI50 in experiment [12] is 17 µM (inactive); in experiment [13], 19.1 µM (inactive); in experiment [19] it was 15.6 µM (inactive); in experiment [14], 16.3 µM (inactive); in [15], 25.4 µM (inactive); in experiment [16] it was 17 µM (inactive).
As for `CN(C)c1ccc2oc(=O)c3ccccc3c2c1`, the GI50 was 24.3 µM (inactive) in experiment [1]; 34.4 µM (inactive) in [2]; 28.9 µM (inactive) in experiment [3]; > 100 µM (inactive) in experiment [4]; > 100 µM (inactive) in experiment [5]; > 100 µM (inactive) in experiment [6]. Further, the GI50 was 35.2 µM (inactive) in experiment [7]; 31.7 µM (inactive) in experiment [8]; > 100 µM (inactive) in experiment [17]; > 100 µM (inactive) in [10]; > 100 µM (inactive) in experiment [18]; 28.6 µM (inactive) in experiment [12]. The GI50 in experiment [13] was 33.1 µM (inactive); in experiment [19] it was 33.7 µM (inactive); in experiment [14], 86.5 µM (inactive); in experiment [16], 25.3 µM (inactive).

Source of the values: ChEMBL document CHEMBL1201862, “PubChem BioAssay data set” (2004).
